Values joined by “and” are separate entries in the source; they are usually repeats but may differ in a detail not shown here. Equal entries are not always repeated.
Tests used:
P‐gp [1] = test: IVIVE of Kp,uu,brain from in vitro ER using REF; set-up: species or system human; conditions: for Kp,uu,brain,pred(method 1) Mean ± SD / Kp,uu,brain,pred(method 1) Individual: predicted from in vitro ER and REF; for Kp,uu,brain,pred(method 1) Mean ± SD: four experiments; for Kp,uu,brain,pred(method 1) Individual: individual experiments 1-4
P‐gp [2] = test: IVIVE of intrinsic CL and Kp,uu,brain using REF and BMEC protein content; set-up: species or system human; conditions: for Kp,uu,brain,pred(method 2): 5C model
P-gp = test: IVIVE of Kp,uu,brain from in vitro ER using REF; set-up: species or system human; conditions: human, brain (unbound, Kp,uu)
P‐gp [3] = conditions: humans, cyclosporine as inhibitor; cited from earlier work

Row | Kp uu (P-gp) | SMILES | P/O (predicted/observed Kp,uu,brain ratio) (P‐gp [1]; method 1) | Kp,uu,brain,pred(method 1) Mean ± SD (P‐gp [1]) | Kp,uu,brain,pred(method 1) Individual (P‐gp [1]) | Kp,uu,brain,pred(method 2) (P‐gp [2]; mean ± standard deviation) | IVIV Extrapolated CLi (P‐gp [2]; mean ± standard deviation, scaled with BMEC protein content) [mL/min] | P/O (predicted/observed value) (P‐gp [2]; method 2) | K1 (cerebral uptake CL), impact of P‐gp inhibition (P‐gp [3])
1 |  | CNC(=O)C(CCN1CCC(O)(c2ccc(Cl)cc2)CC1)(c1ccccc1)c1ccccc1 [N‐desmethyl loperamide] | 0.92 | 0.043 ± 0.018 | 0.058 and 0.035 and 0.056 and 0.021 | 0.020 ± 0.014 | 287 ± 88 | 0.44 | 
2 | 1.3 | CCN(CC)CCNC(=O)c1cc(Cl)c(N)cc1OC [Metoclopramide, metoclopramide] |  | 0.74 ± 0.08 | 0.74 and 0.76 and 0.63 and 0.81 | 0.61 ± 0.10 |  |  | not impacted
